Results from patent publication US20250114487A1, “COMBINATION TREATMENT OF TUMORS” (The University of Chicago, priority 2023, published 2025).
Where two headings read alike, the source gives them in different places.

Experiments:
QGP1.SSTR2 mice = test: In vivo PRRT sensitization, xenograft mice (QGP1.SSTR2)
Description: In vivo studies were conducted in mice. […] Tumor volume and survival was assessed up to 100 days post injection.

QGP1.SSTR2 cells [1] = test: Additional clonogenic assays, QGP1.SSTR2 cells; format: cell-based; conditions: single agent (5.6 μCi Lu-177 DOTA-TATE or fulvestrant) compared to untreated cells
Description: Additional clonogenic assays and in-vivo experiments were conducted using Lu-177 DOTA-TATE in combination with Fulvestrant. […] Results are quantified in FIG. 12B. Treatment with Lu-177-DOTA-TATE alone decreased the number of colonies compared to untreated cells and cells treated with fulvestrant alone. Treatment with fulvestrant alone decreased the number of colonies compared to untreated cells.

QGP1.SSTR2 cells [2] = conditions: 5.6 μCi dose of Lu-177 DOTA-TATE, alone or with 1 uM ATRA or 100 nM Fulvestrant
Description: For in vitro studies, QGP1 cells (pancreatic NET cells) were engineered to express luciferase (QGP1.luc) or to express luciferase and overexpress the somatostatin receptor 2 (SSTR2) (QGP1.SSTR2.luc). Cells were treated with PRRT alone, or PRRT in combination with estrogen receptor inhibition or all-trans-retinoic acid (ATRA).

[3] = test system: QGP1.SSTR2 cells or QGP1 cells not expressing SSTR2
Description: Cells were treated with PRRT alone, or PRRT in combination with estrogen receptor inhibition or all-trans-retinoic acid (ATRA).

QGP-1 cells [4] = test: In vitro radiosensitization, QGP-1 cells; format: cell-based; conditions: 3.5 days following 100 nM Fulvestrant + IR (4 Gy) vs IR alone
Text: (§1) For in vitro experiments, various neuroendocrine tumor (NET) cell lines were used from different primary tumor origins. Specifically, pancreatic cells (QGP-1), small bowel cells (GOT-1), and lung cells (NCI-H727) were used. Cells were supplemented with estrogen (E2)-free or E2-supplemented media to determine the effects of E2 on cell proliferation and DNA repair factors. ESR1 was inhibited by si-RNA mediated knockdown of ESR1 or by administration of the selective estrogen receptor degrader Fulvestrant. Knockdown of ESR1 was achieved using […] siRNA. qPCR was performed to verify knockdown by quantifying ESR1 mRNA levels. For administration of Fulvestrant, 100 nm Fulvestrant was used.
(§2) Radiation (IR) was administered using a dose of 4 Gy using external beam radiation therapy (EBRT). Radiation was administered 24 hours following ESR1 inhibition.
(§3) Cells were treated with […] siRNA against ESR1 followed by irradiation (4 Gy dose), or treated with Fulvestrant followed by irradiation (4 Gy dose). […] Without wishing to be bound by theory, it is possible that estrogen inhibition radiosensitizes cells by decreasing expression of genes involved in DNA repair pathways. This was evaluated by measuring mRNA levels of DNA repair factors Rad51, BRCA1, and BRCA2 following treatment of QGP-1 cells with Fulvestrant for 36 hours or 72 hours.

QGP-1 cells [5] = test: Cell counting after irradiation with Fulvestrant and PARPi Talazoparib, QGP-1 cells; format: cell-based; conditions: fulvestrant in combination with irradiation vs fulvestrant alone, 3 days after irradiation
Description: Total number of cells were counted 3 days after irradiation.

[6] = test system: ESR1, Rad51, BRCA1, BRCA2 mRNA; test: qPCR of mRNA expression of DNA repair factors in QGP-1 cells; format: cell-based; conditions: QGP-1 cells treated with Fulvestrant for 36 hours or 72 hours
Description: For in vitro experiments, various neuroendocrine tumor (NET) cell lines were used from different primary tumor origins. Specifically, pancreatic cells (QGP-1), small bowel cells (GOT-1), and lung cells (NCI-H727) were used. Cells were supplemented with estrogen (E2)-free or E2-supplemented media to determine the effects of E2 on cell proliferation and DNA repair factors. […] Knockdown of ESR1 was achieved using 30 uM siRNA. qPCR was performed to verify knockdown by quantifying ESR1 mRNA levels.
QGP-1 cells were growth in media with standard fetal bovine serum (WT), E2-free media for 7 days, or E-2 free media for 2 days followed by growth in E2 media containing 1 uM E2 additive for 24 hours. mRNA expression of DNA repair factors was evaluated by qPCR.

SSTR2 = test: Western blot of SSTR2 levels, SSTR2 positive QGP1 cells; format: cell-based; conditions: SSTR2 positive QGP1 cells treated with fulvestrant or fulvestrant and irradiation
GOT-1 cells = test: In vitro radiosensitization, GOT-1 cells; format: cell-based
Text: as §1, §2, §3

ER36 or ER56 [7] = test: Western blot of ERα isoform levels, QGP1 cells; format: cell-based; conditions: 100 mM fulvestrant
Description: (§4) Western blot analysis was conducted in various NET cell lines to investigate expression levels of various ERα isoforms. The breast cancer cell line MCF7 was used as a positive control. […] In contrast, the most common isoform of ERα, ER66 kDa, was not present in QGP1 cells, as compared to MCF7. Expression of ER36 was further verified in NCI-H727 cells (FIG. 8B). Expression of ER56 was further verified in NCI-H727 cells and BON1 cells (FIG. 8C). […] Without wishing to be bound by theory, it is possible that this lack of effect of fulvestrant is because ER36 and ER 56 lack the […] binding region to which fulvestrant binds. […] (FIG. 8E).

QGP-1 tumors = test: In vivo radiosensitization, mouse xenograft model with QGP-1 tumors; conditions: for cumulative survival: IR (4 Gy) + 5 mg Fulvestrant subcutaneously compared to irradiation alone and Fulvestrant alone; for tumor volume size: compared to control groups
Description: For in vivo experiments, a mouse xenograft model created using QGP-1 cells was used.
as §2
Radiosensitization was subsequently evaluated in vivo using a mouse model harboring QGP-1 tumors. Four different treatment groups were used. One group was a control that received neither irradiation nor fulvestrant. The second group received fulvestrant alone (5 mg, subcutaneous). The third group received irradiation alone. The fourth group received irradiation and fulvestrant (5 mg. subcutaneous). Tumor volume and overall survival was evaluated. Tumor volume was evaluated at day 7, day 15, day 24, and day 35 post treatment. […] Control mice were euthanized between day 15 and day 24 due to deteriorating health. At day 24 and day 35, no control mice were surviving and as such results presented therein only show treatment with fulvestrant, treatment with irradiation, or treatment with fulvestrant and irradiation.

QGP1 cells = test: QGP1 cell number after irradiation in the presence or absence of estrogen; format: cell-based; conditions: 3.5 days after irradiation (4 Gy)
Description: Additional experiments were conducted to further evaluated the mechanism behind fulvestrant-induced radiosensitization. QGP1 cells were cultured in the presence or absence of estrogen and treated with fulvestrant, irradiation, or fulvestrant and irradiation. The number of cells were evaluated 3.5 days after irradiation (4 Gy). […] This is a strong indication that the effect of fulvestrant is off-target and not through the estrogen receptor pathway. RNA sequencing experiments were conducted to further evaluate the potential mechanism behind radiosensitization.

ER36 or ER56 [8] = test: Western blot of ERα isoform levels, NCI-H727 cells; format: cell-based; parameters: dose or concentration left out as unconfirmed; conditions: fulvestrant
Description: as §4

Compound: C[C@@H](O)[C@H](NC(=O)[C@@H]1CSSC[C@H](NC(=O)[C@@H](Cc2ccccc2)NC(=O)CN2CCN(CC(=O)[O-])CCN(CC(=O)[O-])CCN(CC(=O)[O-])CC2)C(=O)N[C@@H](Cc2ccc(O)cc2)C(=O)N[C@H](Cc2c[nH]c3ccccc23)C(=O)N[C@@H](CCCCN)C(=O)N[C@@H]([C@@H](C)O)C(=O)N1)C(=O)O.[177Lu+3] [Lu-177 DOTA-TATE, lutetium Lu-177 DOTA-TATE]
- mice surviving at day 100 (QGP1.SSTR2 mice; Lu-177-DOTA-TATE alone): less than 25%
- survival (QGP1.SSTR2 mice; compared to control mice and mice treated with fulvestrant): significantly longer
- tumor volume (QGP1.SSTR2 mice; day 7 and day 21 post injection, compared to control mice and mice treated with fulvestrant alone): significantly smaller
- number of colonies (QGP1.SSTR2 cells [1]): decreased
- colony count (QGP1.SSTR2 cells [2]): about 40 cells
- cell count ([3]; 5.6 μCi Lu-177 DOTA-TATE alone, FIG. 10B): about 150
- cell count ([3]; 14.6 μCi Lu-177 DOTA-TATE alone, FIG. 10C): less than 40

Compound: C[C@]12CC[C@@H]3c4ccc(O)cc4C[C@@H](CCCCCCCCC[S+]([O-])CCCC(F)(F)C(F)(F)F)[C@H]3[C@@H]1CC[C@@H]2O (some centres unmarked) [Fulvestrant]
- survival (QGP1.SSTR2 mice; compared to control mice): did not show significant differences
- total cell growth (QGP-1 cells [4]): significant decrease
- number of colonies (QGP1.SSTR2 cells [1]): decreased
- cell death (QGP-1 cells [5]): increases cell death
- mRNA levels of Rad51, BRCA1, BRCA2 [6]: lower
- SSTR2 levels (SSTR2): did not increase
- total cell growth (GOT-1 cells; 3.5 days following 100 nM Fulvestrant + irradiation (4 Gy) vs irradiation alone): significant decrease
- total cell (GOT-1 cells; 5 days following 100 nM Fulvestrant + IR (4 Gy) vs IR alone): significant decrease
- ER36 or ER56 levels (ER36 or ER56 [7]): not found to influence
- cumulative survival (QGP-1 tumors): significantly improved survival
- cumulative survival (QGP-1 tumors; listed as Fulevestrant): significantly improved cumulative survival
- survival, up to (QGP-1 tumors; combination of irradiation (4 Gy) and fulvestrant (5 mg, subcutaneous)): up to 70 days
- tumor volume (QGP-1 tumors; day 35 post treatment, irradiation and fulvestrant compared to irradiation alone): significant decrease
- tumor volume size (QGP-1 tumors; fulvestrant alone (5 mg, subcutaneous)): decreased
- survival, until day (QGP-1 tumors; fulvestrant alone (5 mg, subcutaneous), untreated control not past day 18): ≤ 28 days
- survival (QGP-1 tumors; fulvestrant alone vs untreated control mice): significantly longer survival
- tumor volume size (QGP-1 tumors; irradiation plus fulvestrant (5 mg, subcutaneous)): decreased
- radiosensitization (number of cells) (QGP1 cells): radiosensitizes cells regardless of whether estrogen was present or not present
- ER36 or ER56 levels (ER36 or ER56 [8]): not found to influence
